Key:
[1] = target: Adenosine A2a (ADORA2A) receptor (Homo sapiens (Human), UniProt P29274); assay: ADORA2A Receptor Binding Assay; settings: radioligand binding, membrane stock
Method in brief: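 Test compounds incubated with A2a receptor membranes and a ³H-labelled radioligand for 2 hours at room temperature, then filtered through PEI-presoaked GF/C plates and washed. Filter-bound ³H counted by scintillation; % inhibition calculated from background-subtracted signal relative to high control.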

[2] = target: Adenosine A2B (ADORA2B) receptor (Homo sapiens (Human), UniProt P29275); assay: ADORA2B Receptor Binding Assay; settings: radioligand binding, membrane stock
Adenosine A2B (ADORA2B) receptor, sequence (P29275 whole entry): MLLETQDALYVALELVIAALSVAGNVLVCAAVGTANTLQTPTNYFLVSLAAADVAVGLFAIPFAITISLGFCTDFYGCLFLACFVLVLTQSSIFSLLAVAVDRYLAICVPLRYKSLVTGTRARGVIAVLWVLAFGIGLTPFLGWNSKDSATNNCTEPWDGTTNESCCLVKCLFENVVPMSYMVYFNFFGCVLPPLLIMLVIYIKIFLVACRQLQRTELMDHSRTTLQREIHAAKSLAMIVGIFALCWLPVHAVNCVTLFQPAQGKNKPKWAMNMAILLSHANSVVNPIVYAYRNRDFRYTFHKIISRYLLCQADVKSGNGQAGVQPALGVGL
Method in brief: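 Radioligand competition binding on human A2B receptor membranes, 1 h at room temperature, then filtration through BSA-presoaked GF/C filters and ³H counting by scintillation. Inhibition expressed as % of high control after background subtraction.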

Adenosine A2a (ADORA2A) receptor, sequence (P29274 whole entry): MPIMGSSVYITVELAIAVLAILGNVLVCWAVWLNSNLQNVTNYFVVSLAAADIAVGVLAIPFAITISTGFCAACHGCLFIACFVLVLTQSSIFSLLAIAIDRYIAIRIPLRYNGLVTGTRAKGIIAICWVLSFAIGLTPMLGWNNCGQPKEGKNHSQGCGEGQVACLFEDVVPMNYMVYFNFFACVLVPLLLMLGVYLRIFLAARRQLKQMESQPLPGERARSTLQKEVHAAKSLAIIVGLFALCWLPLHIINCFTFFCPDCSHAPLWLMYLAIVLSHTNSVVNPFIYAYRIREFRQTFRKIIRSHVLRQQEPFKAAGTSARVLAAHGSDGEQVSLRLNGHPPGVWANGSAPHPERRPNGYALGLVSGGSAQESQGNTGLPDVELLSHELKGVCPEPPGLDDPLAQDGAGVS

Row | SMILES | IC50 [1] [nM] | IC50 [2] [nM]
1 | Nc1nc(-c2ccccc2)n2nc(C(F)F)nc2c1Cl [Compound 160, 8-chloro-2-(difluoromethyl)-5-phenyl-[1,2,4]triazolo[1,5-c]pyrimidin-7-amine] | < 10 | 10 to 100
2 | Cc1nc2c3nc(C(F)(F)F)[nH]c3nc(-c3ccc(C)o3)n2n1 [Compound 161, 8-methyl-5-(5-methylfuran-2-yl)-2-(trifluoromethyl)-3H-[1,2,4]triazolo[5,1-f]purine] | 100 to 1000 | 100 to 1000
3 | Cc1ccc(-c2nc3[nH]c(C(C)(C)O)cc3c3nc(C(C)C)nn23)o1 [Compound 162, 2-[7-(5-methylfuran-2-yl)-4-propan-2-yl-3,5,6,8,10-pentazatricyclo[7.3.0.0^2,6]dodeca-1(9),2,4,7,11-pentaen-11-yl]propan-2-ol] | < 10 | 10 to 100
4 | Cc1nc2cc(NC(=O)NC(C)C)nc(-c3ccco3)n2n1 [Compound 163, 1-[5-(furan-2-yl)-2-methyl-[1,2,4]triazolo[1,5-c]pyrimidin-7-yl]-3-propan-2-ylurea] | < 10 | 10 to 100
5 | Cc1ccc(-c2nc(NC(=O)C3CC3)cc3nc(C4CNC4)nn23)o1 [Compound 164, N-[2-(azetidin-3-yl)-5-(5-methylfuran-2-yl)-[1,2,4]triazolo[1,5-c]pyrimidin-7-yl]cyclopropanecarboxamide] | 10 to 100 | > 1000
6 | Cc1nc2c3nc(C(F)(F)F)[nH]c3nc(-c3ccco3)n2n1 [Compound 165, 5-(furan-2-yl)-8-methyl-2-(trifluoromethyl)-3H-[1,2,4]triazolo[5,1-f]purine] | > 1000 | > 1000
7 | Cc1ccc(-c2nc(N)cn3ncnc23)o1 [Compound 166, 8-(5-methylfuran-2-yl)-[1,2,4]triazolo[1,5-a]pyrazin-6-amine] | 100 to 1000 | 100 to 1000
8 | Cc1ccc(-c2nc(NC(=O)C3CC3)cn3ncnc23)o1 [Compound 167, N-[8-(5-methylfuran-2-yl)-[1,2,4]triazolo[1,5-a]pyrazin-6-yl]cyclopropanecarboxamide] | < 10 | < 10
9 | Cc1nc2c(-c3ccc(C)o3)nc(N)cn2n1 [Compound 168, 2-methyl-8-(5-methylfuran-2-yl)-[1,2,4]triazolo[1,5-a]pyrazin-6-amine] | < 10 | 10 to 100
10 | Cc1nc2c(-c3ccc(C)o3)nc(NC(=O)C3CC3)cn2n1 [Compound 169, N-[2-methyl-8-(5-methlfuran-2-yl)-[1,2,4]triazolo[1,5-a]pyrazin-6-yl]cyclopropanecarboxamide] | < 10 | < 10
11 | Cc1nc2c(-c3ccc(F)cc3)nc(N)c(Cl)n2n1 [Compound 170, 5-chloro-8-(4-fluorophenyl)-2-methyl-[1,2,4]triazolo[1,5-a]pyrazin-6-amine] | < 10 | 10 to 100
12 | Cc1nc2c(-c3ccc(F)cc3)nc(N)c(Br)n2n1 [Compound 171, 5-bromo-8-(4-fluorophenyl)-2-methyl-[1,2,4]triazolo[1,5-a]pyrazin-6-amine] | < 10 | 10 to 100
13 | Cc1nc2c(-c3ccccc3)nc(N)c(Br)n2n1 [Compound 172, 5-bromo-2-methyl-8-phenyl-[1,2,4]triazolo[1,5-a]pyrazin-6-amine] | < 10 | < 10
14 | Cc1ccc(-c2nc(NC(=O)C3CC3)cn3nc(C(C)C)nc23)o1 [Compound 173, N-[8-(5-methylfuran-2-yl)-2-propan-2-yl-[1,2,4]triazolo[1,5-a]pyrazin-6-yl]cyclopropanecarboxamide] | < 10 | < 10
15 | CC(=O)Nc1cn2nc(C)nc2c(-c2ccc(C)o2)n1 [Compound 174, N-[2-methyl-8-(5-methylfuran-2-yl)-[1,2,4]triazolo[1,5-a]pyrazin-6-yl]acetamide] | < 10 | < 10
16 | Cc1nc2c(-c3ccc(C)o3)nc(N)c(Cl)n2n1 [Compound 175, 5-chloro-2-methyl-8-(5-methylfuran-2-yl)-[1,2,4]triazolo[1,5-a]pyrazin-6-amine] | < 10 | < 10
17 | Cc1nc2c(-c3ccccc3)nc(N)c(Cl)n2n1 [Compound 176, 5-chloro-2-methyl-8-phenyl-[1,2,4]triazolo[1,5-a]pyrazin-6-amine] | < 10 | < 10
18 | CC(C)c1nc2c(-c3ccccc3)nc(N)c(Cl)n2n1 [Compound 177, 5-chloro-8-phenyl-2-propan-2-yl-[1,2,4]triazolo[1,5-a]pyrazin-6-amine] | < 10 | < 10
19 | Nc1nc(-c2ccccc2)c2nc(C(F)(F)F)nn2c1Cl [Compound 178, 5-chloro-8-phenyl-2-(trifluoromethyl)-[1,2,4]triazolo[1,5-a]pyrazin-6-amine] | < 10 | < 10
20 | CC(=O)Nc1cn2nc(C)nc2c(-c2ccco2)n1 [Compound 179, N-[8-(furan-2-yl)-2-methyl-[1,2,4]triazolo[1,5-a]pyrazin-6-yl]acetamide] | < 10 | < 10

Row | SMILES | IC50 [1] [nM] | IC50 [2] [nM]
21 | Cc1nc2c(-c3ccco3)nc(NC(=O)C3CC3)cn2n1 [Compound 180, N-[8-(furan-2-yl)-2-methyl-[1,2,4]triazolo[1,5-a]pyrazin-6-yl]cyclopropanecarboxamide] | < 10 | < 10
22 | CC(C)c1nc2c(-c3ccco3)nc(NC(=O)C3CC3)cn2n1 [Compound 181, N-[8-(furan-2-yl)-2-propan-2-yl-[1,2,4]triazolo[1,5-a]pyrazin-6-yl]cyclopropanecarboxamide] | < 10 | < 10
23 | Cc1nc2c(-c3ccccc3C)nc(N)c(Cl)n2n1 [Compound 182, 5-chloro-2-methyl-8-(2-methylphenyl)-[1,2,4]triazolo[1,5-a]pyrazin-6-amine] | 100 to 1000 | 100 to 1000
24 | Cc1cccc(-c2nc(N)c(Cl)n3nc(C)nc23)c1 [Compound 183, 5-chloro-2-methyl-8-(3-methylphenyl)-[1,2,4]triazolo[1,5-a]pyrazin-6-amine] | < 10 | 10 to 100
25 | Cc1ccc(-c2nc(N)c(Cl)n3nc(C)nc23)cc1 [Compound 184, 5-chloro-2-methyl-8-(4-methylphenyl)-[1,2,4]triazolo[1,5-a]pyrazin-6-amine] | < 10 | < 10
26 | Cc1ccc(-c2nc(NC(=O)C3CC3)cn3nc(C(F)F)nc23)o1 [Compound 185, N-[2-(difluoromethyl)-8-(5-methylfuran-2-yl)-[1,2,4]triazolo[1,5-a]pyrazin-6-yl]cyclopropanecarboxamide] | < 10 | < 10
27 | Cc1ccc(-c2nc(NC(=O)C3CC3)cn3nc(N)nc23)o1 [Compound 187, N-[2-amino-8-(5-methylfuran-2-yl)-[1,2,4]triazolo[1,5-a]pyrazin-6-yl]cyclopropanecarboxamide] | < 10 | < 10
28 | Cc1ccc(-c2nc(NC(=O)C3CC3)cn3nc(Br)nc23)o1 [Compound 188, N-[2-bromo-8-(5-methylfuran-2-yl)-[1,2,4]triazolo[1,5-a]pyrazin-6-yl]cyclopropanecarboxamide] | < 10 | < 10
29 | Cc1ccc(-c2nc(NC(=O)C3CC3)cn3nc(C(F)(F)F)nc23)o1 [Compound 189, N-[8-(5-methylfuran-2-yl)-2-(trifluoromethyl)-[1,2,4]triazolo[1,5-a]pyrazin-6-yl]cyclopropanecarboxamide] | < 10 | < 10
30 | Cc1ccc(-c2nc(NC(=O)C3CC3)cn3nc(CF)nc23)o1 [Compound 190, N-[2-(fluoromethyl)-8-(5-methylfuran-2-yl)-[1,2,4]triazolo[1,5-a]pyrazin-6-yl]cyclopropanecarboxamide] | < 10 | < 10
31 | Cc1ccc(-c2nc(NC(=O)C3CC3)cn3ccnc23)o1 [Compound 192, N-[8-(5-methylfuran-2-yl)imidazo[1,2-a]pyrazin-6-yl]cyclopropanecarboxamide] | 10 to 100 | 10 to 100
32 | Cc1ccc(-c2nc(N)cn3cc(C(F)(F)F)nc23)o1 [Compound 195, 8-(5-methylfuran-2-yl)-2-(trifluoromethyl)imidazo[1,2-a]pyrazin-6-amine] | 10 to 100 | 100 to 1000
33 | Cc1ccc(-c2nc(NC(=O)C3CC3)cn3c(C)cnc23)o1 [Compound 196, N-[3-methyl-8-(5-methylfuran-2-yl)imidazo[1,2-a]pyrazin-6-yl]cyclopropanecarboxamide] | 10 to 100 | 10 to 100
34 | Cc1ccc(-c2nc(NC(=O)C3CC3)cn3cc(C(F)(F)F)nc23)o1 [Compound 197, N-[8-(5-methylfuran-2-yl)-2-(trifluoromethyl)imidazo[1,2-a]pyrazin-6-yl]cyclopropanecarboxamide] | < 10 | < 10
35 | Cc1ccc(-c2nc(N)cn3c(C)cnc23)o1 [Compound 198, 3-methyl-8-(5-methylfuran-2-yl)imidazo[1,2-a]pyrazin-6-amine] | > 1000 | > 1000
36 | Cc1cn2cc(NC(=O)C3CC3)nc(-c3ccc(C)o3)c2n1 [Compound 199, N-[2-methyl-8-(5-methylfuran-2-yl)imidazo[1,2-a]pyrazin-6-yl]cyclopropanecarboxamide] | < 10 | 10 to 100
37 | Cc1cn2cc(N)nc(-c3ccc(C)o3)c2n1 [Compound 200, 2-methyl-8-(5-methylfuran-2-yl)imidazo[1,2-a]pyrazin-6-amine] | 100 to 1000 | 100 to 1000
38 | Cc1cn2c(Cl)c(N)nc(-c3ccccc3)c2n1 [Compound 201, 5-chloro-2-methyl-8-phenylimidazo[1,2-a]pyrazin-6-amine] | 10 to 100 | 100 to 1000
39 | Cc1cn2c(Cl)c(N)nc(-c3ccc(F)cc3)c2n1 [Compound 202, 5-chloro-8-(4-fluorophenyl)-2-methylimidazo[1,2-a]pyrazin-6-amine] | 100 to 1000 | 100 to 1000

— patent US11718622B2, “Heterocyclic adenosine receptor antagonists” (Exelixis, Inc., priority 2020, dated 2023)
